# Test results published in PubChem BioAssay AID328 (DTP/NCI, 2004).
# Where “and” joins values, the source holds several entries; their conditions need not be identical. Equal entries are not always repeated. Toxic doses and inconclusive results are not listed.
# Tested on: BDF1 mice, P388 leukemia ip, median survival T/C
# Test: NCI In Vivo Anticancer Drug Screen. Data for tumor model P388 Leukemia (intraperitoneal) in B6D2F1 (BDF1) mice
# Conditions: endpoint: median survival time, higher = longer survival
# Summary of the method: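 T/C = treated-group survival ÷ vehicle-control survival; tumour transplanted into mice before dosing.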
# [1] = dose: 12.5 mg/kg/injection, schedule: Q01DX009 (ip), vehicle: saline with Tween-80
# [2] = dose: 25.0 mg/kg/injection, schedule: Q01DX009 (ip), vehicle: saline with Tween-80
# [3] = dose: 25.0 mg/kg/injection, schedule: Q04DX003 (ip), vehicle: saline
# [4] = dose: 50.0 mg/kg/injection, schedule: Q01DX009 (ip), vehicle: saline with Tween-80
# [5] = dose: 50.0 mg/kg/injection, schedule: Q04DX003 (ip), vehicle: saline with Tween-80
# [6] = dose: 50.0 mg/kg/injection, schedule: Q04DX003 (ip), vehicle: saline
# [7] = dose: 100.0 mg/kg/injection, schedule: Q04DX003 (ip), vehicle: saline
# [8] = dose: 400.0 mg/kg/injection, schedule: Q04DX003 (ip), vehicle: saline with Tween-80
# [9] = dose: 100.0 mg/kg/injection, schedule: Q04DX003 (ip), vehicle: saline with Tween-80
# [10] = dose: 200.0 mg/kg/injection, schedule: Q04DX003 (ip), vehicle: saline with Tween-80
smiles,measurement,setting,value
OCC1OCC(O)C(O)C1O (stereo not drawn),T/C,"dose: 12.5 mg/kg/injection, schedule: Q01DX010 (ip), vehicle: saline",91 % of control
same,T/C,"dose: 25.0 mg/kg/injection, schedule: Q01DX010 (ip), vehicle: saline",108 % of control
same,T/C,"dose: 32.0 mg/kg/injection, schedule: Q03HX024 (ip), vehicle: saline",95 % of control
same,T/C,"dose: 50.0 mg/kg/injection, schedule: Q01DX010 (ip), vehicle: saline",108 % of control
same,T/C,"dose: 64.0 mg/kg/injection, schedule: Q03HX024 (ip), vehicle: saline",87 % of control
same,T/C,"dose: 100.0 mg/kg/injection, schedule: Q01DX010 (ip), vehicle: saline",91 % of control
same,T/C,"dose: 128.0 mg/kg/injection, schedule: Q03HX024 (ip), vehicle: saline",100 % of control
same,T/C,"dose: 128.0 mg/kg/injection, schedule: Q04DX003 (ip), vehicle: saline",87 % of control and 104 % of control
same,T/C,"dose: 200.0 mg/kg/injection, schedule: Q01DX010 (ip), vehicle: saline",110 % of control
same,T/C,"dose: 256.0 mg/kg/injection, schedule: Q04DX003 (ip), vehicle: saline",91 % of control and 100 % of control
same,T/C,"dose: 512.0 mg/kg/injection, schedule: Q04DX003 (ip), vehicle: saline",90 % of control
same,T/C,"dose: 800.0 mg/kg/injection, schedule: Q01DX010 (ip), vehicle: saline",115 % of control
same,T/C,"dose: 1024.0 mg/kg/injection, schedule: Q04DX003 (ip), vehicle: saline",100 % of control
CCOC(=O)c1c[nH]c2cc(Cl)ccc2c1=O,T/C,"dose: 75.0 mg/kg/injection, schedule: Q04DX003 (ip), vehicle: Klucel (hydroxypropylcellulose) (HPC)",96 % of control
C=C(C)C(=O)OC1CC2=CC(CC3(C)OC3C3OC(=O)C(=C)C13)OC2=O (stereo not drawn),T/C,"dose: 4.5 mg/kg/injection, schedule: Q01DX009 (ip), vehicle: Klucel (hydroxypropylcellulose) (HPC)",101 % of control
same,T/C,"dose: 18.0 mg/kg/injection, schedule: Q01DX009 (ip), vehicle: Klucel (hydroxypropylcellulose) (HPC)",106 % of control
same,T/C,"dose: 36.0 mg/kg/injection, schedule: Q01DX009 (ip), vehicle: Klucel (hydroxypropylcellulose) (HPC)",117 % of control
CC(=O)n1cc(F)c(=O)[nH]c1=O,T/C,"dose: 0.57 mg/kg/injection, schedule: Q01DX009 (ip), vehicle: saline",116 % of control
same,T/C,"dose: 0.99 mg/kg/injection, schedule: Q01DX009 (ip), vehicle: saline",113 % of control
same,T/C,"dose: 1.3 mg/kg/injection, schedule: Q01DX009 (ip), vehicle: saline",122 % of control
same,T/C,"dose: 2.0 mg/kg/injection, schedule: Q01DX009 (ip), vehicle: saline",165 % of control
same,T/C,"dose: 3.12 mg/kg/injection, schedule: Q01DX009 (ip), vehicle: saline with Tween-80",150 % of control
same,T/C,"dose: 5.0 mg/kg/injection, schedule: Q04DX003 (ip), vehicle: saline",122 % of control
same,T/C,"dose: 6.25 mg/kg/injection, schedule: Q01DX009 (ip), vehicle: saline with Tween-80",160 % of control and 165 % of control
same,T/C,"dose: 7.2 mg/kg/injection, schedule: Q01DX009 (ip), vehicle: saline with Tween-80",166 % of control
same,T/C,[1],178 % of control and 215 % of control
same,T/C,[2],235 % of control and 195 % of control
same,T/C,[3],122 % of control
same,T/C,[4],86 % of control
same,T/C,[5],155 % of control
same,T/C,[6],150 % of control
same,T/C,"dose: 100.0 mg/kg/injection, schedule: Q04DX003 (ip), vehicle: other",108 % of control
same,T/C,[7],181 % of control
same,T/C,"dose: 150.0 mg/kg/injection, schedule: Q04DX003 (ip), vehicle: other",100 % of control
same,T/C,[8],90 % of control
CC(CN(C)C)CN1c2ccccc2Sc2ccccc21 (stereo not drawn),T/C,"dose: 6.25 mg/kg/injection, schedule: Q01DX009 (ip), vehicle: saline",100 % of control
same,T/C,"dose: 6.25 mg/kg/injection, schedule: Q04DX003 (ip), vehicle: saline",100 % of control
same,T/C,"dose: 12.5 mg/kg/injection, schedule: Q01DX009 (ip), vehicle: saline",108 % of control and 90 % of control
same,T/C,"dose: 12.5 mg/kg/injection, schedule: Q04DX003 (ip), vehicle: Klucel (hydroxypropylcellulose) (HPC)",100 % of control
same,T/C,"dose: 12.5 mg/kg/injection, schedule: Q04DX003 (ip), vehicle: saline with Tween-80",110 % of control
same,T/C,"dose: 12.5 mg/kg/injection, schedule: Q04DX003 (ip), vehicle: saline",108 % of control
same,T/C,[2],109 % of control
same,T/C,"dose: 25.0 mg/kg/injection, schedule: Q01DX009 (ip), vehicle: saline",112 % of control and 109 % of control
same,T/C,"dose: 25.0 mg/kg/injection, schedule: Q04DX003 (ip), vehicle: Klucel (hydroxypropylcellulose) (HPC)",124 % of control
same,T/C,[3],108 % of control
same,T/C,"dose: 50.0 mg/kg/injection, schedule: Q01DX009 (ip), vehicle: saline",108 % of control
same,T/C,"dose: 50.0 mg/kg/injection, schedule: Q04DX003 (ip), vehicle: Klucel (hydroxypropylcellulose) (HPC)",124 % of control
same,T/C,[5],89 % of control
same,T/C,[6],120 % of control
C1CC[N-]CC1.C1CC[N-]CC1.O=C(CC(=O)C(F)(F)F)C(F)(F)F.O=C(CC(=O)C(F)(F)F)C(F)(F)F.[Ni+2],T/C,[3],104 % of control
same,T/C,[6],108 % of control
same,T/C,[7],104 % of control
CCn1cnc(-c2ccccc2)c1-c1ccccc1,T/C,[1],100 % of control
same,T/C,[2],104 % of control
same,T/C,[4],100 % of control
ClCCN(CCCl)c1ccc(/C=C\c2ccnc3ccccc23)cc1,T/C,"dose: 100.0 mg/kg/injection, schedule: Q01DX009 (ip), vehicle: saline with Tween-80",104 % of control
same,T/C,"dose: 200.0 mg/kg/injection, schedule: Q01DX009 (ip), vehicle: saline with Tween-80",86 % of control
FC(F)(F)/C([S-])=C(/[S-])C(F)(F)F.FC(F)(F)/C([S-])=C(/[S-])C(F)(F)F.FC(F)(F)/C([S-])=C(/[S-])C(F)(F)F.FC(F)(F)/C([S-])=C(/[S-])C(F)(F)F.[Co+3].[Co+3],T/C,"dose: 12.5 mg/kg/injection, schedule: Q04DX003 (ip), vehicle: other",110 % of control
same,T/C,"dose: 25.0 mg/kg/injection, schedule: Q04DX003 (ip), vehicle: other",120 % of control
CCCCCCCCCCCC[n+]1cccc2ccccc21,T/C,"dose: 0.15 mg/kg/injection, schedule: Q01DX009 (ip), vehicle: saline",100 % of control
same,T/C,"dose: 0.17 mg/kg/injection, schedule: Q04DX003 (ip), vehicle: saline",118 % of control
same,T/C,"dose: 0.34 mg/kg/injection, schedule: Q01DX009 (ip), vehicle: saline",90 % of control and 122 % of control
same,T/C,"dose: 0.35 mg/kg/injection, schedule: Q01DX009 (ip), vehicle: saline",163 % of control
same,T/C,"dose: 0.35 mg/kg/injection, schedule: Q04DX003 (ip), vehicle: saline",122 % of control
same,T/C,"dose: 0.7 mg/kg/injection, schedule: Q01DX009 (ip), vehicle: saline",157 % of control
same,T/C,"dose: 0.7 mg/kg/injection, schedule: Q04DX003 (ip), vehicle: saline",118 % of control
COC(=O)c1ccccc1NCCCC(=O)O,T/C,[9],91 % of control
same,T/C,[10],108 % of control
same,T/C,[8],100 % of control
Cn1c2c(sc1=O)CCC2,T/C,[6],100 % of control
same,T/C,[7],87 % of control
same,T/C,"dose: 200.0 mg/kg/injection, schedule: Q04DX003 (ip), vehicle: saline",100 % of control
CCCCCCCCCCCC[Si](CCCCCCCCCCCC)(c1ccccc1)c1ccccc1,T/C,"dose: 100.0 mg/kg/injection, schedule: Q01DX009 (ip), vehicle: other",95 % of control
same,T/C,[9],100 % of control
same,T/C,"dose: 200.0 mg/kg/injection, schedule: Q01DX009 (ip), vehicle: other",114 % of control
same,T/C,[10],100 % of control
same,T/C,"dose: 400.0 mg/kg/injection, schedule: Q01DX009 (ip), vehicle: other",109 % of control
same,T/C,[8],100 % of control
N#Cc1cn(C2OC(CO)C(O)C2O)c2ncnc(N)c12 (stereo not drawn),T/C,"dose: 0.37 mg/kg/injection, schedule: Q04DX003 (ip), vehicle: other",163 % of control
same,T/C,"dose: 0.38 mg/kg/injection, schedule: Q01DX009 (ip), vehicle: other",105 % of control
same,T/C,"dose: 0.56 mg/kg/injection, schedule: Q04DX003 (ip), vehicle: other",159 % of control
same,T/C,"dose: 0.83 mg/kg/injection, schedule: Q04DX003 (ip), vehicle: other",172 % of control
same,T/C,"dose: 0.88 mg/kg/injection, schedule: Q04DX003 (ip), vehicle: other",154 % of control
same,T/C,"dose: 1.25 mg/kg/injection, schedule: Q04DX003 (ip), vehicle: other",204 % of control
same,T/C,"dose: 1.33 mg/kg/injection, schedule: Q04DX003 (ip), vehicle: other",200 % of control
same,T/C,"dose: 2.0 mg/kg/injection, schedule: Q04DX003 (ip), vehicle: other",150 % of control
same,T/C,"dose: 3.0 mg/kg/injection, schedule: Q04DX003 (ip), vehicle: other",100 % of control
CCCC(=O)c1ccco1,T/C,[4],101 % of control
